Legend:
Assay in all cases: fitness (endpoint OD595 vs no drug) (fraction); higher = more growth
[1] = system: B. subtilis 168
Outline: (§1)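 In 384-well plates at 37 °C, cultures began at OD595 0.01 in 30 µl, with 55 µl used for S. pneumoniae. OD595 readings every 30 min for 14 h were corrected by the first reading. Fitness divides the stationary-phase transition optical density by the robust mean of no-drug control wells. The result is capped at 1.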

[2] = system: S. aureus DSM 20231
Outline: as §1

[3] = system: S. pneumoniae D39V
Outline: as §1
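Also: OD595 on entry to stationary phase over no-drug wells; at most 1.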

CN(C)[C@@H]1C(O)=C(C(N)=O)C(=O)[C@@]2(O)C(O)=C3C(=O)c4c(O)ccc(Cl)c4[C@@](C)(O)[C@H]3C[C@@H]12 [Chlortetracycline] + C[C@@H]1O[C@@H]1P(=O)(O)O [Fosfomycin]
Conditions	fitness
[1], first compound 0.0475 µg/mL, partner 1.562 µg/mL	0.713
[1], first compound 0.0475 µg/mL, partner 3.124 µg/mL	0.636
[1], first compound 0.0475 µg/mL, partner 6.248 µg/mL	0.498
[1], first compound 0.095 µg/mL, partner 1.562 µg/mL	0.629
[1], first compound 0.095 µg/mL, partner 3.124 µg/mL	0.557
[1], first compound 0.095 µg/mL, partner 6.248 µg/mL	0.408
[1], first compound 0.19 µg/mL, partner 3.124 µg/mL	0.336
[1], first compound 0.19 µg/mL, partner 6.248 µg/mL	0.19
[2], first compound 0.012 µg/mL, partner 0.781 µg/mL	0.309
[2], first compound 0.012 µg/mL, partner 1.562 µg/mL	0.145
[2], first compound 0.012 µg/mL, partner 3.124 µg/mL	0.0645
[2], first compound 0.024 µg/mL, partner 0.781 µg/mL	0.154
[2], first compound 0.024 µg/mL, partner 1.562 µg/mL	0.0553
[2], first compound 0.024 µg/mL, partner 3.124 µg/mL	0.0457
[2], first compound 0.048 µg/mL, partner 0.781 µg/mL	0.0506
[2], first compound 0.048 µg/mL, partner 1.562 µg/mL	0.0192
[2], first compound 0.048 µg/mL, partner 3.124 µg/mL	0.0143
[3], first compound 0.012 µg/mL, partner 1.25 µg/mL	0.936
[3], first compound 0.012 µg/mL, partner 2.5 µg/mL	0.881
[3], first compound 0.012 µg/mL, partner 5 µg/mL	0.777
[3], first compound 0.024 µg/mL, partner 1.25 µg/mL	0.629
[3], first compound 0.024 µg/mL, partner 2.5 µg/mL	0.625
[3], first compound 0.024 µg/mL, partner 5 µg/mL	0.628
[3], first compound 0.048 µg/mL, partner 1.25 µg/mL	0.303
[3], first compound 0.048 µg/mL, partner 2.5 µg/mL	0.31
[3], first compound 0.048 µg/mL, partner 5 µg/mL	0.319
[3], first compound 0.375 µg/mL, partner 1.25 µg/mL	0.045
[3], first compound 0.375 µg/mL, partner 2.5 µg/mL	0.0463
[3], first compound 0.375 µg/mL, partner 5 µg/mL	0.0538
[3], first compound 0.75 µg/mL, partner 1.25 µg/mL	0.0544
[3], first compound 0.75 µg/mL, partner 2.5 µg/mL	0.0368
[3], first compound 0.75 µg/mL, partner 5 µg/mL	0.0501
[3], first compound 1.5 µg/mL, partner 1.25 µg/mL	0.0742
[3], first compound 1.5 µg/mL, partner 2.5 µg/mL	0.0712
[3], first compound 1.5 µg/mL, partner 5 µg/mL	0.0865

[2], first compound 0.006 µg/mL, one replicate
Conditions	fitness
partner 0.781 µg/mL	0.609
partner 1.562 µg/mL	0.47
partner 3.124 µg/mL	0.205

CN(C)[C@@H]1C(O)=C(C(N)=O)C(=O)[C@@]2(O)C(O)=C3C(=O)c4c(O)ccc(Cl)c4[C@@](C)(O)[C@H]3C[C@@H]12 [Chlortetracycline] + Cc1onc(-c2ccccc2)c1C(=O)N[C@@H]1C(=O)N2[C@@H]1SC(C)(C)[C@@H]2C(=O)O [Oxacillin]
Conditions	fitness
[1], first compound 0.0475 µg/mL, partner 0.002 µg/mL	0.868
[1], first compound 0.0475 µg/mL, partner 0.004 µg/mL	0.829
[1], first compound 0.0475 µg/mL, partner 0.008 µg/mL	0.832
[1], first compound 0.095 µg/mL, partner 0.002 µg/mL	0.802
[1], first compound 0.095 µg/mL, partner 0.004 µg/mL	0.764
[1], first compound 0.095 µg/mL, partner 0.008 µg/mL	0.726
[1], first compound 0.19 µg/mL, partner 0.002 µg/mL	0.488
[1], first compound 0.19 µg/mL, partner 0.004 µg/mL	0.401
[1], first compound 0.19 µg/mL, partner 0.008 µg/mL	0.416
[2], first compound 0.012 µg/mL, partner 0.0156 µg/mL	0.452
[2], first compound 0.012 µg/mL, partner 0.0312 µg/mL	0.379
[2], first compound 0.012 µg/mL, partner 0.0625 µg/mL	0.341
[2], first compound 0.024 µg/mL, partner 0.0156 µg/mL	0.204
[2], first compound 0.024 µg/mL, partner 0.0312 µg/mL	0.173
[2], first compound 0.024 µg/mL, partner 0.0625 µg/mL	0.165
[2], first compound 0.048 µg/mL, partner 0.0156 µg/mL	0.0968
[2], first compound 0.048 µg/mL, partner 0.0312 µg/mL	0.0599
[2], first compound 0.048 µg/mL, partner 0.0625 µg/mL	0.0746
[3], first compound 0.012 µg/mL, partner 0.01 µg/mL	0.921
[3], first compound 0.012 µg/mL, partner 0.02 µg/mL	0.878
[3], first compound 0.012 µg/mL, partner 0.04 µg/mL	0.6
[3], first compound 0.024 µg/mL, partner 0.01 µg/mL	0.876
[3], first compound 0.024 µg/mL, partner 0.02 µg/mL	0.853
[3], first compound 0.024 µg/mL, partner 0.04 µg/mL	0.681
[3], first compound 0.048 µg/mL, partner 0.01 µg/mL	0.821
[3], first compound 0.048 µg/mL, partner 0.02 µg/mL	0.739
[3], first compound 0.048 µg/mL, partner 0.04 µg/mL	0.544
[3], first compound 0.375 µg/mL, partner 0.005 µg/mL	0.0823
[3], first compound 0.375 µg/mL, partner 0.01 µg/mL	0.0713
[3], first compound 0.375 µg/mL, partner 0.02 µg/mL	0.0526
[3], first compound 0.75 µg/mL, partner 0.005 µg/mL	0.104
[3], first compound 0.75 µg/mL, partner 0.01 µg/mL	0.0551
[3], first compound 0.75 µg/mL, partner 0.02 µg/mL	0.0755
[3], first compound 1.5 µg/mL, partner 0.005 µg/mL	0.0919
[3], first compound 1.5 µg/mL, partner 0.01 µg/mL	0.0809
[3], first compound 1.5 µg/mL, partner 0.02 µg/mL	0.0469

fitness, one replicate
Conditions	partner 0.0078 µg/mL	partner 0.0155 µg/mL	partner 0.0156 µg/mL	partner 0.031 µg/mL	partner 0.0312 µg/mL	partner 0.0625 µg/mL	partner 0.075 µg/mL	partner 0.15 µg/mL	partner 0.3 µg/mL
[1], first compound 0.0475 µg/mL	0.924	0.934	–	0.931	–	–	0.66	0.0283	0.0599
[1], first compound 0.095 µg/mL	0.926	0.814	–	0.674	–	–	0.581	0.0215	0.0316
[1], first compound 0.19 µg/mL	0.62	0.621	–	0.575	–	–	0.377	0.0401	0.0338
[2], first compound 0.006 µg/mL	–	–	0.7	–	0.531	0.435	–	–	–

Reference: the supplement of paper PMC10627819
